# The supplement of paper PMC11061612
# Assays:
# [1] = test system: SNU-5 (Gastric Carcinoma); experiment: Bliss excess, mean over the matrix (fraction); higher = more synergy
# Summary of the method: (§1)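 Cell lines grown in DMEM/F12 or RPMI with 10% FBS were plated in 1536-well plates and held 24 hours at 37°C, 5% CO2 before 72 hours of exposure to two-drug dose matrices, with DMSO typically at 0.2%. CellTiter-Glo 2.0 luminescence gave viability, which was converted to inhibition. Vehicle wells were set to 0 and blank wells to 1. Combination Emax is the second-highest inhibition in the matrix, and Bliss excess is the observed combination effect minus the expected EA + EB − EA·EB, where EA and EB are the single-agent effects.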
# [2] = test system: LNCaP-Clone-FGC (Prostate Carcinoma); experiment: as above
# Summary of the method: as §1
# [3] = test system: Calu-3 (Lung Adenocarcinoma); experiment: as above
# Summary of the method: as §1
# AGS (Gastric Carcinoma) = experiment: as above
# Summary of the method: as §1
# [4] = test system: LB831-BLC (Bladder Carcinoma); experiment: as above
# Summary of the method: as §1
# [5] = test system: HCC-78 (Lung Adenocarcinoma); experiment: as above
# Summary of the method: as §1
# [6] = test system: SNU-5 (Gastric Carcinoma); experiment: combination Emax (second highest fraction inhibited in the dose matrix, 72 h); higher = more inhibition; extreme values may be limits of the assay
# Summary of the method: as §1
# [7] = test system: HCC1806 (Breast Carcinoma); experiment: as above
# Summary of the method: as §1
# [8] = test system: CAL-148 (Breast Carcinoma); experiment: as above
# Summary of the method: as §1
# [9] = test system: UM-UC-3 (Bladder Carcinoma); experiment: as above
# Summary of the method: as §1
# [10] = test system: RO82-W-1 (Thyroid Gland Carcinoma); experiment: as above
# Summary of the method: as §1
# NB10 (Neuroblastoma) = experiment: as above
# Summary of the method: as §1
# [11] = test system: LB831-BLC (Bladder Carcinoma); experiment: as above
# Summary of the method: as §1
# [12] = test system: KURAMOCHI (Ovarian Carcinoma); experiment: as above
# Summary of the method: as §1
# [13] = test system: KP-1N (Pancreatic Carcinoma); experiment: as above
# Summary of the method: as §1
# 42-MG-BA (Glioblastoma) = experiment: as above
# Summary of the method: as §1
# NOS-1 (Osteosarcoma) = experiment: as above
# Summary of the method: as §1
# [14] = test system: Ramos-2G6-4C10 (Burkitt's Lymphoma); experiment: as above
# Summary of the method: as §1
# [15] = test system: EC-GI-10 (Esophageal Squamous Cell Carcinoma); experiment: as above
# Summary of the method: as §1
# [16] = test system: HCC-78 (Lung Adenocarcinoma); experiment: as above
# Summary of the method: as §1
# 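For Bliss excess, mean over the matrix in this document: after 72 h of two-drug dosing.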
SMILES,Bliss excess [1],Bliss excess [2],Bliss excess [3],Bliss excess (AGS (Gastric Carcinoma)),Bliss excess [4],Bliss excess [5],combination Emax [6],combination Emax [7],combination Emax [8],combination Emax [9],combination Emax [10],combination Emax (NB10 (Neuroblastoma)),combination Emax [11],combination Emax [12],combination Emax [13],combination Emax (42-MG-BA (Glioblastoma)),combination Emax (NOS-1 (Osteosarcoma)),combination Emax [14],combination Emax [15],combination Emax [16]
"CC1(C)CCC(CN2CCN(c3ccc(C(=O)NS(=O)(=O)c4ccc(NCC5CCOCC5)c([N+](=O)[O-])c4)c(Oc4cnc5[nH]ccc5c4)c3)CC2)=C(c2ccc(Cl)cc2)C1 [Venetoclax] + Cn1cnc2c(F)c(Nc3ccc(Br)cc3Cl)c(C(=O)NOCCO)cc21 [Selumetinib] (first compound max 1 µM, 7x7, partner max 3 µM)",-0.0192,-0.0459,-0.0214,-0.0792,-0.0239,-0.0329,0.453,0.359,0.248,0.189,0.116,0.381,0.142,0.502,0.191,0.215,0.227,0.035,0.313,0.167
"CC(=O)c1c(C)c2cnc(Nc3ccc(N4CCNCC4)cn3)nc2n(C2CCCC2)c1=O [Palbociclib] + CC1(C)CCC(CN2CCN(c3ccc(C(=O)NS(=O)(=O)c4ccc(NCC5CCOCC5)c([N+](=O)[O-])c4)c(Oc4cnc5[nH]ccc5c4)c3)CC2)=C(c2ccc(Cl)cc2)C1 [Venetoclax] (first compound max 10 µM, 7x7, partner max 1 µM)",0.0453,0.0267,-0.0252,-0.0493,-0.0523,-0.0244,0.336,0.268,0.161,0.175,0.174,0.293,0.108,0.0917,0.212,0.27,0.693,0.355,0.387,0.144
"Cc1c2c(nn1C)CSCc1cc(n(C)n1)CSc1cc(c3ccccc3c1)OCCCc1c(C(=O)O)n(C)c3c-2c(Cl)ccc13 [AZD5991] + C[C@@H](Nc1cc(F)cc(F)c1)c1cc(C(=O)N(C)C)cc2c(=O)cc(N3CCOCC3)oc12 [AZD8186] (first compound max 1 µM, 7x7, partner max 3 µM)",0.0155,-0.0234,0.0441,0.0073,0.0352,-0.005,0.427,0.6,0.335,0.311,0.367,0.179,0.366,0.404,0.274,0.963,0.84,0.959,0.559,0.413
"COc1nnc2ccc(N3CCC(c4ccc(OCCN5CCN(C)C(=O)[C@H]5C)cc4)CC3)nn12 [AZD5153] + Cc1c2c(nn1C)CSCc1cc(n(C)n1)CSc1cc(c3ccccc3c1)OCCCc1c(C(=O)O)n(C)c3c-2c(Cl)ccc13 [AZD5991] (first compound max 1 µM, 7x7, partner max 1 µM)",-0.0069,-0.0722,-0.0288,-0.0166,-0.0588,-0.0184,0.561,0.755,1,0.281,0.411,0.651,0.587,0.927,0.582,0.883,1,1,0.671,0.522
"Cc1cc2ncnn2cc1Nc1ncc2c(n1)n(C1CCOCC1)c(=O)n2C [AZD7648] + CN(C)CCCOc1ccc(-c2ccc3ncc4c(c3c2)n(C2CCOCC2)c(=O)n4C)cn1 [AZD0156] (first compound max 10 µM, 7x7, partner max 1 µM)",0.0166,0.0016,-0.0252,0.0178,-0.0154,0.0106,0.376,0.271,0.424,0.236,0.394,0.307,0.243,0.192,0.188,0.398,0.225,0.292,0.161,0.263
"CC1(C)CCC(CN2CCN(c3ccc(C(=O)NS(=O)(=O)c4ccc(NCC5CCOCC5)c([N+](=O)[O-])c4)c(Oc4cnc5[nH]ccc5c4)c3)CC2)=C(c2ccc(Cl)cc2)C1 [Venetoclax] + C[C@@H](Nc1cc(F)cc(F)c1)c1cc(C(=O)N(C)C)cc2c(=O)cc(N3CCOCC3)oc12 [AZD8186] (first compound max 1 µM, 7x7, partner max 3 µM)",0.0236,-0.0066,-0.0189,-0.0458,-0.0465,-0.0337,0.406,0.0952,0.263,0.164,0.217,0.24,0.182,0.306,0.235,0.391,0.462,0.221,0.131,0.261
